Source: patent publication US8148577B2, “Polyamines useful as anti-parasitic and anti-cancer therapeutics and as lysine-specific demethylase inhibitors” (The Johns Hopkins University, priority 2005, dated 2012)

Legend:
[1] = test system: H82 (small lung cell carcinoma) cells; assay: 96 hr MTS dose response experiments in H82 cells; type: cell-based, human
Protocol: (§1) MTS dose response experiments in H157, H82, and A549 cells following a 96 hr exposure with select compounds were performed. MTS is a standard colorimetric assay used for measuring metabolic activity in cells. MTS experiments were performed by CellTiter 96® AQueuos One Solution Cell Proliferation Assay from Promega Corporation. Briefly, the cells were seeded at 3000 cells/well on a 96 well tissue culture plate containing 100 ul of medium/well and allowed to attach overnight. The medium was then aspirated and replaced with 100 ul of fresh medium containing the appropriate concentration of the compound being tested and incubated for 96 hrs at 37° C. and 5% CO2. Compounds are routinely tested at concentrations ranging from 0.1 micromolar to 50 micromolar. Wells not containing the test compound were present and used as a control. Following treatment, 20 ul of MTS reagent was added to each well and incubated at 37° C. for 1.5 hrs. The absorbance of each well was then measured at 490 nm and used to determine the metabolic activity of the cells in the presence of the test compound, relative to the control. IC50 values for the test compounds were extracted based on the results.
(§2) Note that the results for a 72 hr exposure in addition to the 96 hr exposure are shown for compound 49-TDW-29C in the H157 cells. […] FIG. 1 depicts the results of a 96 hr MTS dose response experiments for compound 46-TDW-23c in H157, A549, H82 and Beas2B cells. FIG. 2 depicts the results of a 96 hr MTS dose response experiments for compound 49-TDW-9 in H157, A549, H82 and Beas2B cells. FIG. 3 depicts the results of a 96 hr MTS dose response experiments for compound 42-TDW-21c in H157, A549, H82 and Beas2B cells. FIG. 4 depicts the results of a 96 hr MTS dose response experiments for compound 46-TDW-19c in H157, A549, H82 and Beas2B cells. FIG. 5 depicts the results of a 96 hr MTS dose response experiments for compound 49-TDW-17c in H157, A549, H82 and Beas2B cells. FIG. 6 depicts the results of a 96 hr MTS dose response experiments for compound 40-TDW-37 in H157, A549, H82 and Beas2B cells. FIG. 7 depicts the results of a 96 hr MTS dose response experiments for compound 42-TDW-4 in H157, A549, H82 and Beas2B cells. FIG. 8 depicts the results of a 96 hr MTS dose response experiments for compound 49-TDW-29c in H157, A549, H82 and Beas2B cells. FIG. 9 depicts the results of a 96 hr MTS dose response experiments for compound 49-TDW-32c in H157, A549, H82 and Beas2B cells. FIG. 10 depicts the results of a 96 hr MTS dose response experiments for compound 46-TDW-35c in H157, A549, H82 and Beas2B cells. FIG. 11 depicts the results of a 96 hr MTS dose response experiments for compound 39-TDW-3 in H157, A549, and H82 cells. FIG. 12 depicts the results of a 96 hr MTS dose response experiments for compound 39-TDW-12c in […], and A549 cells. FIG. 13 depicts the results of a 96 hr MTS dose response experiments for compound 39-TDW-20c in H157, and H82 cells. FIG. 14 depicts the results of a 96 hr MTS dose response experiments for compounds 39-TDw-47c and 39-TDW-43 in H157 cells. FIG. 15 depicts the results of a 96 hr MTS dose response experiments for compounds 42-TDW-9, 42-TDW-4c/6, 40-TDW-35, 42-TDW-38 and BENSpm in H157 cells. FIG. 16 depicts the results of a 96 hr MTS dose response experiments for compounds 46-TDW-34c, 42-TDW-12, 40-TDW-48, 46-TDW-44c and BENSpm in H157 cells. FIG. 17 depicts the results of a 96 hr MTS dose response experiments for compounds 42-TDW-20c, 46-TDW-22, 46-TDW-39, 49-TDW-29c and BENSpm in H157 cells. FIG. 18 depicts the results of a 96 hr MTS dose response experiments for compounds 39-TDW-43, 42-TDW-48c, 46-TDW-9, 46-TDW-23c and BENSpm in H157 cells. FIG. 19 depicts the results of a 96 hr MTS dose response experiments for compounds 42-TDW-35c, 46-TDW-44 and BENSpm in H157 cells.

[2] = test system: H157 (non-small cell lung carcinoma) cells; assay: 96 hr MTS dose response experiment in H157 cells; type: cell-based, human; details: a range means IC50 lies between the two tested concentrations
Protocol: as §1, §2

A549 cells = assay: 96 hr MTS dose response experiments in A549 cells; type: cell-based; details: Homo sapiens, 96 hr exposure
Protocol: as §1
Note that the results for a 72 hr exposure in addition to the 96 hr exposure are shown for compound 49-TDW-29C in the H157 cells. […]

H82 cells = assay: Polyamine levels in H82 cells following treatment; type: cell-based, human; details: 24 hr
Protocol: (§3) Putrescine, spermidine, and spermine polyamine levels in H157 and H82 cells following exposure to select compounds were performed. Polyamine levels were determined using the precolumn dansylation labeling, reverse-phase high-pressure liquid chromatography method as described by Kabra et al., J. Chromotography, 380:19 (1986). The results are show in Tables 6 and 11 for H157 and H82 cells respectively. The compound identifier, treatment concentration, observed polyamine level, and exposure time are listed in columns 1, 2, 3, and 4 respectively. Polyamine levels are reported as increased (inc), decrease (dec), or no change (N/C). In some case the specific levels of putrescine, spermidine, and/or spermine are listed.

[3] = test system: H157 (non-small cell lung carcinoma) cells; assay: Polyamine levels in H157 cells following treatment; type: cell-based, human; details: 24 hr
Protocol: as §3

[4] = test system: P19 embryonal carcinoma cells; details: P19 embryonal carcinoma cells treated; cited from earlier work
[5] = Homo sapiens, NCI-H82, 96 hr exposure
[6] = Homo sapiens, NCI-H157, 96 hr exposure
[7] = 10 uM, inc = increased, dec = decrease, N/C = no change

Row | SMILES | IC50 [1, 5] | IC50 [2, 6] | Polyamine Level [3, 7] | further results
1 | c1ccc(-c2ccccc2CNCCCNCCCNCCCNCc2ccccc2-c2ccccc2)cc1 [39-TDW-3] | 0.53 to 2.7 µM | 0.53 to 2.7 µM |  | IC50 (A549 cells): 1 to 10 µM
2 | CCNCCCNCCCNCCCNCc1ccccc1-c1ccccc1 [39-TDW-20c] | 2.76 to 5.52 µM | 2.76 to 5.52 µM |  | IC50 (A549 cells): > 10 µM
3 | CC(C)(C)CCNCCCNCCCNCCCNCC(F)(F)F [40-TDW-19] | 5 to 10 µM | 5.3 to 26.5 µM |  | 
4 | CCNCCCNCCCNCCCNCCCCc1cc2cccc3ccc4cccc1c4c32 [40-TDW-23] |  |  |  | IC50 ([1]; 96 hr exposure): 10 to 50 µM; IC50 ([2]; 96 hr exposure): 10 to 50 µM
5 | CCSCCNCCCNCCCNCCCNCCSCC [49-TDW-15] |  |  |  | IC50 ([1]; 96 hr exposure): 10 to 50 µM; IC50 ([2]; 96 hr exposure): 0.5 to 1 µM
6 | C=C(C)NCCCNCCCNCCCN [ZQW-35-7c] |  | > 10 µM | dec | Polyamine Level (H82 cells; 10 uM): N/C; Polyamine Level ([3]; 5 uM): slight dec
7 | C=C(C)NCCCNCCCNCCCNC(=C)C [ZQW-35-8] |  | > 10 µM | N/C | Polyamine Level (H82 cells; 10 uM): N/C, slight
8 | C=C(C)NCCCNCCCNCCCNCC [ZQW-35-8c] |  | 1 to 10 µM | dec | Polyamine Level (H82 cells; 10 uM): N/C, slight; Polyamine Level, spd, spm ([3]; spermidine and spermine, 10 uM): 1 g dec
9 | N[C@@H]1C[C@H]1c1ccccc1 [tranylcypromine, (1R,2S)-2-phenylcyclopropan-1-amine] |  |  |  | effect on transcription of Egr1 and Oct4 genes [4]: transcriptional de-repression of the Egr1 and Oct4 genes

More lines, main results first:

Row | IC50 [1, 5] | IC50 [2, 6] | SMILES | Polyamine Level [3, 7] | further results
10 | < 1 µM | 1 to 10 µM | CC1(C)C2CCC(CNCCCNCCCNCCCNCC3CCC4CC3C4(C)C)C1C2 (stereo not drawn) [ZQW-35] |  | Polyamine Level ([3]; 4 uM): N/C
11 | 1 to 10 µM | 1 to 10 µM | CC1(C)C2CCC(CNCCCNCCCNCCCN)C1C2 (stereo not drawn) [ZQW-35c] |  | 
12 | 1 to 10 µM | 1 to 10 µM | CCNCCCNCCCNCCCNCC1CCC2CC1C2(C)C (stereo not drawn) [ZQW-36] | slight dec | Polyamine Level, Spm ([3]; spermine (Spm), 10 uM): inc
13 |  | > 13 µM | C=C(CNCCCNCC)CNCCCNCC [ZQW-44] | N/C | Polyamine Level (H82 cells; 50 uM): inc
14 |  | 13 µM | C=C(CNCC)CNCCCNCCCNCC [ZQW-46] | N/C | Polyamine Level (H82 cells; 5-uM): dec
